# Assay results from patent US20100286136A1, “DIHYDRONAPHTHYRIDINYL AND RELATED COMPOUNDS FOR USE IN TREATING OPHTHALMOLOGICAL DISORDERS” (priority 2009, published 2010).
# Molecular target: T1, CCR2b (Homo sapiens, UniProt P41597)
# T1 construct: host or cells: AequoScreen CCR2b cells
# T1 sequence (P41597 1-360 isoform P41597-2): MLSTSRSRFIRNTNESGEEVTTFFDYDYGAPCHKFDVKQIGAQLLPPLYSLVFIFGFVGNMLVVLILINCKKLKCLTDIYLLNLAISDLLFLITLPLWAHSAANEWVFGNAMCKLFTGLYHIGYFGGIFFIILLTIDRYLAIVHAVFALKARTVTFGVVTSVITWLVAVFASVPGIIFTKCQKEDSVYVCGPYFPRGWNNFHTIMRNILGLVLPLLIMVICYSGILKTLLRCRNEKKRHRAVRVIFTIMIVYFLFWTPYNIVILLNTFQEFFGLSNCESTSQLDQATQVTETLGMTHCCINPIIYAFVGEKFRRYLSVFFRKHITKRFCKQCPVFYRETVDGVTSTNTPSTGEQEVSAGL
# Experiment: AequoScreen CCR2b calcium flux assay, antagonist mode against reference agonist MCP-1
# Format: cell-based
# Conditions: AequoScreen CCR2b (FAST-060A) cells; inhibition of reference agonist MCP-1 at its EC80; read-out: IC50 (μM) Ca^++flux
# Description: The biological activity of the compounds described herein can be evaluated using assays known in the art, such as the AequoScreen™ assay.
# AequoScreen™ CCR2b (FAST-060A) cells grown to mid-log phase in culture media without antibiotics are detached with PBS-EDTA, centrifuged and resuspended in assay buffer (DMEM/HAM's F12 with HEPES, without phenol red+0.1% BSA protease free) at a concentration of 1×10^6 cells/mL. Cells are incubated at room temperature for at least 4 hours with coelenterazine h. Dose response curves are performed before testing. The reference agonist is MCP-1.
# For agonist testing, 50 μL of cell suspension is mixed with 50 μL of test compound in a 96-well plate. The resulting emission of light is recorded using a Hamamatsu Functional Drug Screening System 6000 (FDSS 6000).
# Following an incubation of 15 minutes after the first injection, 100 μL of the resulting cell suspension containing the test compound is mixed with 100 μL of the reference agonist in the 96 well test plate. The resulting emission of light is recorded using the same luminometer as for agonist testing.
# Agonist activity of a test compound can be expressed as a percentage of the activity of the reference agonist at its EC100 concentration. Antagonist activity of a test compound can be expressed as a percentage of the inhibition of reference agonist activity at its EC80 concentration.
row,IC50 [µM],Compound
1,< 0.2,"3-Ethyl-6-((3-(methoxymethyl)-3-(3-(trifluoromethyl)-5,6,7,8-tetrahydro-1,6-naphthyridine-6-carbonyl)pyrrolidin-1-yl)methyl)benzo[d]oxazol-2(3H)-one [Example 42]"
2,< 0.2,"5-Bromo-6-((3-(methoxymethyl)-3-(3-(trifluoromethyl)-5,6,7,8-tetrahydro-1,6-naphthyridine-6-carbonyl)pyrrolidin-1-yl)methyl)-3-methylbenzo[d]oxazol-2(3H)-one [Example 43]"
3,< 0.2,"Cn1c(=O)ccc2ccc(CN3CCC(CC4CC4)(C(=O)N4CCc5ncc(C(F)(F)F)cc5C4)C3)cc21 (single isomer, unassigned) [Example 4, 5 (Enantiomer I)]"
4,< 0.2,"Cn1c(=O)ccc2ccc(CN3CCC(CC4CC4)(C(=O)N4CCc5ncc(C(F)(F)F)cc5C4)C3)cc21 (single isomer, unassigned) [Example 4, 5 (Enantiomer II)]"
5,< 0.2,"COCC1(C(=O)N2CCc3ncc(C(F)(F)F)cc3C2)CCN(Cc2ccc3ccc(=O)n(C)c3c2)C1 (single isomer, unassigned) [Example 26, 27 (Enantiomer I)]"
6,> 1,"COCC1(C(=O)N2CCc3ncc(C(F)(F)F)cc3C2)CCN(Cc2ccc3ccc(=O)n(C)c3c2)C1 (single isomer, unassigned) [Example 26, 27 (Enantiomer II)]"
7,< 0.2,"COCC1(C(=O)N2CCc3ncc(C(F)(F)F)cc3C2)CCN(C2CCC(O)(c3ccc(OC)nc3)CC2)C1 (single isomer, unassigned) [Example 30, 31 (Isomer I), (1-(4-Hydroxy-4-(6-methoxypyridin-3-yl)cyclohexyl)-3-(methoxymethyl)pyrrolidin-3-yl)(3-(trifluoromethyl)-7,8-dihydro-1,6-naphthyridin-6(5H)-yl)methanone]"
8,> 1,"COCC1(C(=O)N2CCc3ncc(C(F)(F)F)cc3C2)CCN(C2CCC(O)(c3ccc(OC)nc3)CC2)C1 (single isomer, unassigned) [Example 30, 31 (Isomer II), (1-(4-Hydroxy-4-(6-methoxypyridin-3-yl)cyclohexyl)-3-(methoxymethyl)pyrrolidin-3-yl)(3-(trifluoromethyl)-7,8-dihydro-1,6-naphthyridin-6(5H)-yl)methanone]"
9,< 0.2,"COCC1(C(=O)N2CCc3ncc(C(F)(F)F)cc3C2)CCN(Cc2ccc3oc(=O)n(C)c3c2)C1 (single isomer, unassigned) [Example 40, 41 (Enantiomer I)]"
10,0.2 to 1,"COCC1(C(=O)N2CCc3ncc(C(F)(F)F)cc3C2)CCN(Cc2ccc3oc(=O)n(C)c3c2)C1 (single isomer, unassigned) [Example 40, 41 (Enantiomer II)]"
11,< 0.2,"COCC1(C(=O)N2CCc3ncc(C(F)(F)F)cc3C2)CCN(C2CCC(c3ccc(OC)nc3)CC2)C1 (single isomer, unassigned) [Example 50, 51 (Isomer I), (3-(Methoxymethyl)-1-(4-(6-methoxypyridin-3-yl)cyclohexyl)pyrrolidin-3-yl)(3-(trifluoromethyl)-7,8-dihydro-1,6-naphthyridin-6(5H)-yl)methanone]"
12,< 0.2,"COCC1(C(=O)N2CCc3ncc(C(F)(F)F)cc3C2)CCN(C2CCC(c3ccc(OC)nc3)CC2)C1 (single isomer, unassigned) [Example 50, 51 (Isomer II), (3-(Methoxymethyl)-1-(4-(6-methoxypyridin-3-yl)cyclohexyl)pyrrolidin-3-yl)(3-(trifluoromethyl)-7,8-dihydro-1,6-naphthyridin-6(5H)-yl)methanone]"
13,0.2 to 1,"COCC1(C(=O)N2CCc3ncc(C(F)(F)F)cc3C2)CCN(C2CCC(c3cncnc3)CC2)C1 (single isomer, unassigned) [Example 54, 55 (Isomer II), (3-(Methoxymethyl)-1-(4-(pyrimidin-5-yl)cyclohexyl)pyrrolidin-3-yl)(3-(trifluoromethyl)-7,8-dihydro-1,6-naphthyridin-6(5H)-yl)methanone]"
14,< 0.2,"COCC1(C(=O)N2CCc3ncc(C(F)(F)F)cc3C2)CCN(C2CCC(c3ccc(F)cc3)CC2)C1 (single isomer, unassigned) [Example 56, 57 (Isomer I), (1-(4-(4-Fluorophenyl)cyclohexyl)-3-(methoxymethyl)pyrrolidin-3-yl)(3-(trifluoromethyl)-7,8-dihydro-1,6-naphthyridin-6(5H)-yl)methanone]"
15,0.2 to 1,"CC(C)CC1(C(=O)N2CCc3ncc(C(F)(F)F)cc3C2)CCN(Cc2ccc3ccc(=O)n(C)c3c2)CC1 [Example 1, 7-((4-Isobutyl-4-(3-(trifluoromethyl)-5,6,7,8-tetrahydro-1,6-naphthyridine-6-carbonyl)piperidin-1-yl)methyl)-1-methylquinolin-2(1H)-one]"
16,> 1,"COc1cc(CN2CCC(CC(C)C)(C(=O)N3CCc4ncc(C(F)(F)F)cc4C3)CC2)ccc1O [Example 2, (1-(4-Hydroxy-3-methoxybenzyl)-4-isobutylpiperidin-4-yl)(3-(trifluoromethyl)-7,8-dihydro-1,6-naphthyridin-6(5H)-yl)methanone]"
17,< 0.2,"Cn1c(=O)ccc2ccc(CN3CCC(CC4CC4)(C(=O)N4CCc5ncc(C(F)(F)F)cc5C4)C3)cc21 (centres unmarked) [Example 3, 7-((3-(Cyclopropylmethyl)-3-(3-(trifluoromethyl)-5,6,7,8-tetrahydro-1,6-naphthyridine-6-carbonyl)pyrrolidin-1-yl)methyl)-1-methylquinolin-2(1H)-one]"
18,0.2 to 1,"COc1cc(CN2CCC(CC3CC3)(C(=O)N3CCc4ncc(C(F)(F)F)cc4C3)C2)ccc1O (centres unmarked) [Example 6, (1-(4-Hydroxy-3-methoxybenzyl)-3-(cyclopropylmethyl)pyrrolidin-3-yl)(3-(trifluoromethyl)-7,8-dihydro-1,6-naphthyridin-6(5H)-yl)methanone]"
19,> 1,"O=C(N1CCc2ncc(C(F)(F)F)cc2C1)C1(CC2CC2)CCN(Cc2ccc(O)c(F)c2)C1 (centres unmarked) [Example 7, (3-(Cyclopropylmethyl)-1-(3-fluoro-4-hydroxybenzyl)pyrrolidin-3-yl)(3-(trifluoromethyl)-7,8-dihydro-1,6-naphthyridin-6(5H)-yl)methanone]"
20,0.2 to 1,"O=C(N1CCc2ncc(C(F)(F)F)cc2C1)C1(CC2CC2)CCN(CC2CCOCC2)C1 (centres unmarked) [Example 8, (3-(Cyclopropylmethyl)-1-((tetrahydro-2H-pyran-4-yl)methyl)pyrrolidin-3-yl)(3-(trifluoromethyl)-7,8-dihydro-1,6-naphthyridin-6(5H)-yl)methanone]"
21,0.2 to 1,"CC1(C)CC(CN2CCC(CC3CC3)(C(=O)N3CCc4ncc(C(F)(F)F)cc4C3)C2)CCO1 (centres unmarked) [Example 9, (3-(Cyclopropylmethyl)-1-((2,2-dimethyltetrahydro-2H-pyran-4-yl)methyl)pyrrolidin-3-yl)(3-(trifluoromethyl)-7,8-dihydro-1,6-naphthyridin-6(5H)-yl)methanone]"
22,> 1,"COc1cc2c(cc1CN1CCC(CC3CC3)(C(=O)N3CCc4ncc(C(F)(F)F)cc4C3)C1)OC(C)C2 (centres unmarked) [Example 10, (3-(Cyclopropylmethyl)-1-((5-methoxy-2-methyl-2,3-dihydrobenzofuran-6-yl)methyl)pyrrolidin-3-yl)(3-(trifluoromethyl)-7,8-dihydro-1,6-naphthyridin-6(5H)-yl)methanone]"
23,< 0.2,"Cn1c(=O)sc2ccc(CN3CCC(CC4CC4)(C(=O)N4CCc5ncc(C(F)(F)F)cc5C4)C3)cc21 (centres unmarked) [Example 11, 5-((3-(Cyclopropylmethyl)-3-(3-(trifluoromethyl)-5,6,7,8-tetrahydro-1,6-naphthyridine-6-carbonyl)pyrrolidin-1-yl)methyl)-3-methylbenzo[d]thiazol-2(3H)-one]"
24,0.2 to 1,"O=C(N1CCc2ncc(C(F)(F)F)cc2C1)C1(CC2CC2)CCN(Cc2ccc3sc(=O)[nH]c3c2)C1 (centres unmarked) [Example 12, 5-((3-(Cyclopropylmethyl)-3-(3-(trifluoromethyl)-5,6,7,8-tetrahydro-1,6-naphthyridine-6-carbonyl)pyrrolidin-1-yl)methyl)benzo[d]thiazol-2(3H)-one]"
25,> 1,"O=C(N1CCc2ncc(C(F)(F)F)cc2C1)C1(CC2CC2)CCN(Cc2ccc3ccc(=O)[nH]c3c2)C1 (centres unmarked) [Example 15, 7-((3-(Cyclopropylmethyl)-3-(3-(trifluoromethyl)-5,6,7,8-tetrahydro-1,6-naphthyridin-6-carbonyl)pyrrolidin-1-yl)methyl)quinolin-2(1H)-one]"
26,> 1,"CC(c1ccc2c(c1)n(C)c(=O)n2C)N1CCC(CC2CC2)(C(=O)N2CCc3ncc(C(F)(F)F)cc3C2)C1 (centres unmarked) [Example 16, 5-(1-(3-(Cyclopropylmethyl)-3-(3-(trifluoromethyl)-5,6,7,8-tetrahydro-1,6-naphthyridine-6-carbonyl)pyrrolidin-1-yl)ethyl)-1,3-dimethyl-1H-benzo[d]imidazol-2(3H)-one]"
